Where two headings read alike, the source gives them in different places.
System: HCV 1b genotype replicon
Assay: HCV replicon assay (qRT-PCR or luciferase), genotype 1b
Format: cell-based
Settings: Hepatitis C virus
Excerpt: HCV replicon cell lines (kindly provided by R. Bartenschlager) isolated from colonies as described by Lohman et al. (Lohman et al. (1999) Science 285: 110-113, expressly incorporated by reference in its entirety) and used for all experiments. The HCV replicon has the nucleic acid sequence set forth in EMBL Accession No.: AJ242651, the coding sequence of which is from nucleotides 1801 to 8406.
The coding sequence of the published HCV replicon was synthesized and subsequently assembled in a modified plasmid pBR322 (Promega, Madison, Wis.) using standard molecular biology techniques. One replicon cell line (“SGR 11-7”) stably expresses HCV replicon RNA which consists of (i) the HCV 5′UTR fused to the first 12 amino acids of the capsid protein, (ii) the neomycin phosphotransferase gene (neo), (iii) the IRES from encephalomyocarditis virus (EMCV) and (iv) HCV NS2 to NS5B genes and the HCV 3′UTR. Another replicon cell line (“Huh-luc/neo-ET”) described by Vrolijk et. al. (Vrolijk et. al. (2003) Journal of Virological Methods 110:201-209, expressly incorporated by reference in its entirety) stably expresses HCV replicon RNA which consists of (i) the HCV 5′UTR fused to the first 12 amino acids of the capsid protein, (ii) the firefly luciferase reporter gene, (iii) the ubiquitin gene, (iv) the neomycin phosphotransferase gene (neo), (v) the IRES from encephalomyocarditis virus (EMCV) and (vi) HCV NS3 to NS5B genes that harbor cell culture adaptive mutations (E1202G, T12801, K1846T) and the HCV 3′UTR.
These cell lines are maintained at 37° C., 5% CO2, 100% relative humidity in DMEM (Cat#11965-084, Invitrogen), with 10% fetal calf serum (“FCS”, Invitrogen), 1% non-essential amino acids (Invitrogen), 1% of Glutamax (Invitrogen), 1% of 100× penicillin/streptomycin (Cat#15140-122, Invitrogen) and Geneticin (Cat#10131-027, Invitrogen) at 0.75 mg/ml or 0.5 mg/ml for 11-7 and Huh-luc/neo-ET cells, respectively.
EC50 values of single agent compounds were determined by HCV RNA detection using quantitative RT-PCR, according to the manufacturer's instructions, with a TAQMAN® One-Step RT-PCR Master Mix Reagents Kit (Cat#AB 4309169, Applied Biosystems) on an ABI Model 7500 thermocycler. EC50 values of combinations are similarly determined by HCV RNA detection using quantitative RT-PCR. The TAQMAN primers to use for detecting and quantifying HCV RNA obtained from Integrated DNA Technologies. HCV RNA is normalized to GAPDH RNA levels in drug-treated cells, which is detected and quantified using the Human GAPDH Endogenous Control Mix (Applied Biosystems, AB 4310884E). Total cellular RNA is purified from 96-well plates using the RNAqueous 96 kit (Ambion, Cat#AM1812). Chemical agent cytotoxicity is evaluated using an MTS assay according to the manufacturer's directions (Promega).
Since clinical drug resistance often develops in viral infections following single agent therapies, there is a need to assess the additive, antagonistic, or synergistic properties of combination therapies. We use the HCV replicon system to assess the potential use of the compound of the present invention or in combination therapies with Interferon alpha, cyclosporine analogs and inhibitors targeting other HCV proteins. The acute effects of a single or combinations of drugs are studied in the “Huh-luc/neo-ET” replicon with each chemical agent titrated in an X or Y direction in a 6 point two-fold dilution curve centered around the EC50 of each drug. Briefly, replicon cells are seeded at 7,000 cells per well in 90 ul DMEM (without phenol red, Invitrogen Cat.#31053-036) per well with 10% FCS, 1% non-essential amino acids, 1% of Glutamax and 1% of 100× penicillin/streptomycin and incubated overnight at 37° C., 5% CO2, 100% relative humidity. […]

[1] = read-out: Genotype-1b replicon EC50 Range
[2] = read-out: Genotype-1b replicon EC50

SMILES	EC50 [1]	EC50 [2]
COC(=O)N[C@H]1CCCCCCCCOCc2[nH]c(nc2-c2ccc(-c3ccc(-c4c[nH]c([C@@H]5CCCN5C(=O)[C@@H](NC(=O)OC)C(C)C)n4)cc3)cc2)[C@@H]2CCCN2C1=O [Example 356]	< 0.1 nM	
COC(=O)N[C@H]1CCCCOCc2[nH]c(nc2-c2ccc(-c3ccc(-c4c[nH]c([C@@H]5CC6(CC6)CN5C(=O)[C@@H](NC(=O)OC)C(C)C)n4)cc3)cc2)[C@@H]2CCCN2C1=O [Example 258]	< 0.1 nM	0.014 nM
COC(=O)N[C@H](C(=O)N1CCC[C@H]1c1nc(-c2ccc(-c3ccc(-c4nc5[nH]c4COCCCCO[C@H](C)[C@H](NC(=O)OC)C(=O)N4CCC[C@@H]54)cc3)cc2)c[nH]1)C(C)C [Example 349]	< 0.1 nM	
COC(=O)N[C@H]1C/C=C/COCc2[nH]c(nc2-c2ccc(-c3ccc(-c4c[nH]c([C@@H]5CCCN5C(=O)[C@@H](NC(=O)OC)C(C)C)n4)cc3)cc2)CN(C)C1=O [Example 359]	> 1 nM	
COC(=O)N[C@H]1COCCCCOCc2[nH]c(nc2-c2ccc(-c3ccc(-c4c[nH]c([C@@H]5CCCN5C(=O)[C@@H](NC(=O)OC)C(C)C)n4)cc3)cc2)[C@@H]2CCCN2C1=O [Example 353]	< 0.1 nM	0.023 nM
COC(=O)N[C@H]1CCCCOCc2[nH]c(nc2-c2ccc(-c3ccc(-c4nc5[nH]c4COCCCC[C@H](NC(=O)OC)C(=O)N4CCC[C@@H]54)cc3)cc2)[C@@H]2CCCN2C1=O [Example 336]	0.1 to 1 nM	0.175 nM
COC(=O)N[C@H]1CCCCOCc2[nH]c(nc2-c2ccc(-c3ccc(-c4c[nH]c([C@@H]5CCCN5C(=O)[C@@H](NC(=O)OC)C(C)C)n4)cc3)cc2)[C@@H]2CCCN2C1=O [Example 83]	< 0.1 nM	
COC(=O)N[C@H](C(=O)N1CCC[C@H]1c1nc(-c2ccc(-c3ccc(-c4nc5[nH]c4COCCC[C@H](C)[C@H](NC(=O)OC)C(=O)N4CCC[C@@H]54)cc3)cc2)c[nH]1)C(C)C [Example 317]	< 0.1 nM	
COC(=O)N[C@H]1CCCCCCCOCc2[nH]c(nc2-c2ccc(-c3ccc(-c4c[nH]c([C@@H]5CCCN5C(=O)[C@@H](NC(=O)OC)C(C)C)n4)cc3)cc2)[C@@H]2CCCN2C1=O [Example 368]	< 0.1 nM	
COC(=O)N[C@H]1CCCCCOCc2[nH]c(nc2-c2ccc(-c3ccc(-c4c[nH]c([C@@H]5CCCN5C(=O)[C@@H](NC(=O)OC)C(C)C)n4)cc3)cc2)[C@@H]2CCCN2C1=O [Example 322]	< 0.1 nM	
COC(=O)N[C@H]1C/C=C/COCc2[nH]c(nc2-c2ccc(-c3ccc(-c4c[nH]c([C@@H]5CCCN5C(=O)[C@@H](NC(=O)OC)C(C)C)n4)cc3)cc2)[C@@H]2CCCN2C1=O [Example 344]	< 0.1 nM	0.047 nM
COC(=O)N[C@H]1Cc2cc(on2)COCc2[nH]c(nc2-c2ccc(-c3ccc(-c4c[nH]c([C@@H]5CCCN5C(=O)[C@@H](NC(=O)OC)C(C)C)n4)cc3)cc2)[C@@H]2CCCN2C1=O [Example 333]	< 0.1 nM	0.083 nM
COC(=O)N[C@H]1CCCCC/C=C\COCc2[nH]c(nc2-c2ccc(-c3ccc(-c4c[nH]c([C@@H]5CCCN5C(=O)[C@@H](NC(=O)OC)C(C)C)n4)cc3)cc2)[C@@H]2CCCN2C1=O [Example 355]	< 0.1 nM	
COC(=O)N[C@H](C(=O)N1CCC[C@H]1c1nc(-c2ccc(-c3ccc(-c4nc5[nH]c4COC/C=C/[C@H](C)[C@H](NC(=O)OC)C(=O)N4CCC[C@@H]54)cc3)cc2)c[nH]1)C(C)C [Example 318]	0.1 to 1 nM	
COC(=O)N[C@H]1CCCCCCOCc2[nH]c(nc2-c2ccc(-c3ccc(-c4c[nH]c([C@@H]5CCCN5C(=O)[C@@H](NC(=O)OC)C(C)C)n4)cc3)cc2)[C@@H]2CCCN2C1=O [Example 366]	< 0.1 nM	

— patent publication US8933110B2, “Hepatitis C virus inhibitors” (Enanta Pharmaceuticals, Inc., priority 2010, dated 2015)
